Reference: US6228602A, “Competitive apo-peroxidase assay” (Bayer Corporation, priority 1999, dated 2001)
pKd: −log10 of the molar value.

Legend:
[1] = molecular target: T1, apo-POD (Armoracia rusticana, UniProt P00433); test: Metal porphyrin study: reactivation of apo-peroxidase (Example IV); assay type: biochemical, horse radish; settings: for % R @ 90 second read time on CLINITEK-200+, mean: 12 μM apo-POD, HEMASTIX no lepidine/pH 7.5
T1 construct: purchased Sigma Chemical Company, St. Louis, Mo
T1 sequence (P00433 31-353): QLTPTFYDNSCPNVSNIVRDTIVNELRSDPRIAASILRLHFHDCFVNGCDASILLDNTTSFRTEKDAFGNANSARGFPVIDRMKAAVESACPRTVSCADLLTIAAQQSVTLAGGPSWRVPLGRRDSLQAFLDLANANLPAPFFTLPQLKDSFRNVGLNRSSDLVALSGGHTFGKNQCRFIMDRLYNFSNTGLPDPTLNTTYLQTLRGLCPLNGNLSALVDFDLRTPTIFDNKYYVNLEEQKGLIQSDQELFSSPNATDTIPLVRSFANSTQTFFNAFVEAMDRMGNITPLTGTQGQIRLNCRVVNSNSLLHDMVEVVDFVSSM
Description: (§1) In this example, other metal porphyrins were tested for their ability to reactivate different types of apo-peroxidases. Metals such as Fe, Cu, Mg, Zn, Ni, Mn, Co and Pd were complexed to hematin and added to the peroxidase detecting agent. Metals such as Mn, Fe, Cu and Co and porphyrins other than hematin, i.e. deuteroporphyrin and coproporphyrin were also shown to provide the desired response.

[2] = Metal porphyrin study: metal porphyrin in water without apo-enzyme (Example IV); assay type: biochemical; settings: HEMASTIX no lepidine/pH 7.5
Description: as §1

[3] = molecular target: Apoglucose oxidase; settings: apoglucose oxidase and FAD; U.S. Pat. No. 4,493,890; read-out: binding constant; cited from earlier work
[4] = molecular target: T1, apo-POD; test: Interference study with peroxidase detecting dry reagent (Example III); assay type: biochemical, horse radish
Description: In this example, a peroxidase detecting dry reagent with resistance to 0.81 mg/dL hemoglobin (or myoglobin) and 25 mg/dL ascorbate and sufficient sensitivity to detect apo-peroxidase reactivation was used. […]
The reagent was tested by dipping it into solutions containing the interfering substance with and without Fe hematin. […]

[5] = molecular target: T2, apo-Hb (Homo sapiens, UniProt P68871+P69905); test: Metal porphyrin study: reactivation of apo-hemoglobin (Example IV); assay type: biochemical; settings: 12 μM apo-Hb, 12 μM metal porphyrin, HEMASTIX no lepidine/pH 7.5
T2 construct: made in house
Description: as §1
A 0.7% solution of hemoglobin was lowered to pH 1.5 and the resulting solution was ultrafiltered through a 10 KDa cutoff membrane followed by several changes of water. Filtered material was reconstituted into water. The apo-hemoglobin passed […]. […] It produced a HEMASTIX® result of +++++ indicating a high concentration of hemoglobin.

[6] = molecular target: T3, apo-peroxidase (Armoracia rusticana, UniProt P00433); test: Proximity effect: antibody binding of hematin-antigen conjugate prevents apo-enzyme reactivation (Example II); assay type: biochemical, horse radish; settings: for Reagent Response (% R @ 30 Sec) @ 660 nm: 36 nM apo-peroxidase, 36 nM antigen-hematin, 36 nM antibody
T3 construct: purchased Sigma Chemical Company, St. Louis, Mo
T3 sequence (P00433 31-353): T1 sequence (P00433 31-353)
Description: A 10 μL sample of hematin-BJP^1 (3.6 μM, 8.61 mg/dL in phosphate buffered saline), anti-BJP (3.6 μM, 52.56 mg/dL in PBS) and BJP (3.6 μM, 8.28 mg/dL in phosphate buffered saline) were mixed with 10 μL apo-POD (3.6 μM, 14.0 mg/dL in phosphate buffered saline) and […] phosphate buffered saline. The solution was incubated for 5 to 10 minutes at room temperature and the response to HEMASTIX® reagent dipped in the test solution was measured using a CLINITEK®-200 instrument. The response of HEMASTIX® reagent with the phosphate buffered saline solution containing hematin alone was 65.7% reflectance at 1 minute. Sheep anti-human BJP monoclonal antibody was obtained from The Binding Site Limited of Birmingham, England.
In this example, antibody binding of the hematin-antigen conjugate is shown to prevent apo-enzyme reactivation (Table 4). The data set out in Table 4 were generated by using the HEMASTIX® formula with lepidine but lacking apo-peroxidase, antigen-hematin antigen and antibody. The later were mixed in solution and reagent strips with the modified HEMASTIX® formula were immediately dipped into the solution and read using a CLINITEK™-200+ reflectance spectrometer.

[7] = molecular target: T1, apo-POD; test: Detection limit study: peroxidase activity / apo-POD reactivation read with HEMASTIX reagent (Example I); assay type: biochemical, horse radish; settings: 3.6 nM
Description: In this example apo-peroxidase is compared to hematin and hematin-antigen conjugates to determine the detectable concentrations and effects of conjugation and antigen molecular weight on apo-enzyme reactivations. Solutions containing combinations of apo-POD, Fe^+3 hematin and hematin conjugate were tested for peroxidase activity. Peroxidase activity was measured in urine using HEMASTIX® reagent as set out in Table 3. This reagent is similar to that set out in Table 1 but lacking the metal porphyrin conjugate, competitive binder and apo-peroxidase while containing lepidine as an activator.
A 10 μL portion of hematin (3.6 μM, 0.23 mg/dL in phosphate buffered saline) or a 10 μL hematin-BJP allotment (3.6 μM, 8.61 mg/dL in phosphate buffered saline) was mixed with 10 μL apo-POD (3.6 μM, 14.0 mg/dL in phosphate buffered saline) all in 980 μL of phosphate buffered saline and then diluted to the desired concentration with additional phosphate buffered saline. The solution was incubated for 1 minute at 40° C. or at room temperature. The response of HEMASTIX® reagent dipped into the test solution was measured on a CLINITEK™-200 reflectance instrument. The response of the reagent set out in Table 1 on the phosphate buffered solution alone was 65.2% reflectance at 1 minute.
Apo-horse radish peroxidase was obtained from Sigma Chemical Company of St. Louis, Mo. The phosphate buffered solution was prepared by adding 0.69 g monobasic sodium phosphate, 0.71 g of dibasic sodium phosphate and 0.45 g of sodium chloride to 100 mL of water.
The HEMASTIX® reagent referred to earlier with the addition of lepidine and at a lower pH when compared to the formula of Table 1 was applied to the strip in a two dip system of the following composition and used in Examples I to IV (Table 3).

[8] = molecular target: T1, apo-POD; test: as above; assay type: biochemical, horse radish; settings: 1 minute @ 30° C.

T2 sequence (P69905 2-142 limits assumed): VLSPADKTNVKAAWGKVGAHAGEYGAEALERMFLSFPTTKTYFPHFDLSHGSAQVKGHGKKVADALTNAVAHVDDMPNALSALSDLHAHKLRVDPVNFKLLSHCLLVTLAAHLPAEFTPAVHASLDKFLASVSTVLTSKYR
T2 sequence (P68871 2-147 limits assumed): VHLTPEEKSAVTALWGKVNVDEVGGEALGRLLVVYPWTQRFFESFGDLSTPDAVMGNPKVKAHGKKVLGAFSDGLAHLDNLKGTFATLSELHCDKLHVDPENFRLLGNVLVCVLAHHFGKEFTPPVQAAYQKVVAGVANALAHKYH

CC1=Cc2cc3[n-]c(cc4nc(cc5[n-]c(cc1n2)cc5C)C(C)=C4CCC(=O)O)c(CCC(=O)O)c3C.[Cu+2] [Cu deuteroporphyrin]
% R @ 90 second read time on CLINITEK-200+, mean ([1]; 120 μM metal porphyrin): 57.2 % R
response / activity with apo-peroxidase (in words) ([1]; metal porphyrin study): responses similar to those obtained for Fe
% R @ 90 second read time on CLINITEK-200+, mean ([2]; 120 μM metal porphyrin): 73.7 % R

Cc1cc2nc3c(=O)[nH]c(=O)nc-3n(C[C@H](O)[C@H](O)[C@H](O)COP(=O)(O)OP(=O)(O)OC[C@H]3O[C@@H](n4cnc5c(N)ncnc54)[C@H](O)[C@@H]3O)c2cc1C [FAD, flavin adenine dinucleotide]
pKd [3]: ~10.00

C=CC1=C(C)c2cc3[n-]c(cc4[n-]c(cc5nc(cc1n2)C(C)=C5C=C)c(C)c4CCC(=O)O)c(CCC(=O)O)c3C.O.[Fe+2] [Fe Hematin]
% R response, mean ([4]; +3.6 μM Fe Hematin, HEMASTIX (lepidine/pH 6.3), Water): 8.8%
% R response, mean ([4]; +3.6 μM Fe Hematin, HEMASTIX (no lepidine/pH 7.5), Water): 79.2%
% R response, mean ([4]; +12 μM Fe Hematin/12 μM apo-POD, HEMASTIX (lepidine/pH 6.3), Water): 4.1%
% R response, mean ([4]; +12 μM Fe Hematin/12 μM apo-POD, HEMASTIX (no lepidine/pH 7.5), 25 mg/dL Ascorbic): 55.3%
% R response, mean ([4]; +12 μM Fe Hematin/12 μM apo-POD, HEMASTIX (no lepidine/pH 7.5), Water): 54.0%
% R response, mean ([4]; +12 μM Fe Hematin, HEMASTIX (lepidine/pH 6.3), 25 mg/dL Ascorbic): 5.3%
% R response, mean ([4]; +12 μM Fe Hematin, HEMASTIX (lepidine/pH 6.3), Water): 6.4%
% R response, mean ([4]; +12 μM Fe Hematin, HEMASTIX (no lepidine/pH 7.5), 25 mg/dL Ascorbic): 73.2%
% R response, mean ([4]; +12 μM Fe Hematin, HEMASTIX (no lepidine/pH 7.5), Water): 72.4%
% R response, mean ([4]; +36 μM Fe Hematin, HEMASTIX (lepidine/pH 6.3), Water): 3.1%
% R @ 90 second read time on CLINITEK-200+, mean ([1]; 12 μM metal porphyrin): 50.9 % R
% R @ 90 second read time on CLINITEK-200+, mean [5]: 45.3 % R
% R @ 90 second read time on CLINITEK-200+, mean ([2]; 12 μM metal porphyrin): 71.5 % R

CC1=Cc2cc3[n-]c(cc4nc(cc5[n-]c(cc1n2)cc5C)C(C)=C4CCC(=O)O)c(CCC(=O)O)c3C.[Fe+2] [Fe deuteroporphyrin]
% R @ 90 second read time on CLINITEK-200+, mean ([1]; 12 μM metal porphyrin): 56.1 % R
% R @ 90 second read time on CLINITEK-200+, mean [5]: 49.2 % R
% R @ 90 second read time on CLINITEK-200+, mean ([2]; 12 μM metal porphyrin): 72.2 % R

CC1=Cc2cc3[n-]c(cc4nc(cc5[n-]c(cc1n2)cc5C)C(C)=C4CCC(=O)O)c(CCC(=O)O)c3C.[Mg+2] [Mg deuteroporphyrin]
% R @ 90 second read time on CLINITEK-200+, mean ([1]; 120 μM metal porphyrin): 70.9 % R
% R @ 90 second read time on CLINITEK-200+, mean ([2]; 120 μM metal porphyrin): 74.4 % R

Cc1cc(C)nc(NS(=O)(=O)c2ccc(N)cc2)n1 [Sulfamethazine]
Reagent Response (% R @ 30 Sec) @ 660 nm ([6]; 24 nM antigen): 21.3 % R
Reagent Response (% R @ 30 Sec) @ 660 nm ([6]; free antigen none): 23.6 % R
prevention of apo-enzyme reactivation by antibody (in words) ([6]; antigen-hematin plus antibody): did not prevent apo-enzyme reactivation

CC1=Cc2cc3[n-]c(cc4nc(cc5[n-]c(cc1n2)cc5C)C(C)=C4CCC(=O)O)c(CCC(=O)O)c3C.[Zn+2] [Zn deuteroporphyrin]
% R @ 90 second read time on CLINITEK-200+, mean ([1]; 120 μM metal porphyrin): 70.7 % R
% R @ 90 second read time on CLINITEK-200+, mean ([2]; 120 μM metal porphyrin): 71.3 % R

C=CC1=C(C)c2cc3[n-]c(cc4[n-]c(cc5nc(cc1n2)C(C)=C5C=C)c(C)c4CCC(=O)O)c(CCC(=O)O)c3C.O.[Fe+2] [hematin]
peroxidase activity (in words) ([7]; in the presence of apo-POD): detectable at 3.6 nM
peroxidase activity (in words) ([7]; without partner): not detectable
response of HEMASTIX reagent, % reflectance ([6]; phosphate buffered saline solution containing hematin alone, 1 minute): 65.7 % reflectance
Mean % Reflectance @ 660 nm ([8]; 3.6 nM, antigen IgG, hematin, antigen-hematin or apo-POD alone (Cases A, B, E)): 64.9%
Mean % Reflectance @ 660 nm ([8]; 3.6 nM, antigen IgG, with apo-POD (Cases C, D)): 46.3%
Mean % Reflectance @ 660 nm ([8]; (3.6 nM; antigen Sulfmethazine), hematin, antigen-hematin or apo-POD alone (Cases A, B, E)): 63.4%
Mean % Reflectance @ 660 nm ([8]; (3.6 nM; antigen Sulfmethazine), with apo-POD (Cases C, D)): 48.9%
Mean % Reflectance @ 660 nm ([8]; (3.6 mM; antigen BJP), hematin, antigen-hematin or apo-POD alone (Cases A, B, E)): 65.1%
Mean % Reflectance @ 660 nm ([8]; (3.6 mM; antigen BJP), with apo-POD (Cases C, D)): 55.3%
